Source: patent US5409911A, “Prostaglandin analog for treating osteoporosis” (Merck & Co., Inc., priority 1992, dated 1995)
Read-outs that look alike come from different tables or passages of the source.

How the values were obtained:
bone resorption = type: in vivo, rat (Sprague-Dawley female); conditions: equimolar weekly i.v. doses
Description: Lysylpyridinoline concentration is a measure of the breakdown of bone collagen.
Effect of PGE2 /ABP (IIIa) on bone resorption estimated by urinary excretion of lysypyridinoline in the rat
4 week old Sprague-Dawley female rats were injected intravenously via the tail vein with equimolar weekly doses of ABP (1 mg/kg, n=5), PGE2 /ABP (2.4 mg/kg, n=5), PGE2 (1.4 mg/kg, n=5), or saline (n=4) each. Filtered urine was collected after 12 and 26 days by housing individual rats in metabolic cages and providing them with food and water ad libitum. The overnight collections of urine were centrifuged at 1000×g for 10 minutes to remove any particles and the supernatant fluid was stored at -80° C. until analysis. Lysylpyridinoline (LP) was extracted from duplicate 1 ml aliquots by acid hydrolysis and subsequent low pressure CF-1 chromatography according to the method of Beardsworth et al. (1990). LP was further resolved by high pressure liquid chromatography according to the method of Uebelhart et al. (1990) and quantitated by comparison with an external standard. Urinary creatinine was measured using the picric acid colorimetric assay (Pharmacia Diagnostics Inc., Fairfield, N.J.). Final results were expressed as pmoles LP per μmole creatinine. […]

[1] = test system: bone loss due to limb immobilization; test: Effects on bone loss due to limb immobilization in the rat (unilateral sciatic neurectomy, femoral ash weight); type: in vivo, rat (Sprague-Dawley male); conditions: s.c. on two consecutive days before neurectomy; femoral ash weight difference, ten days post-neurectomy; ABP 0.5 mg/kg, PGE2/ABP 1.2 mg/kg, PGE2 0.7 mg/kg; n=6
Description: ABP, PGE2 /ABP, and PGE2 effects on bone loss due to limb immobilization in the rat
Male Sprague-Dawley rats weighing 270 grams (10-12 wks) were injected subcutaneously on two consecutive days prior to unilateral sciatic neurectomy induced hindlimb immobilization with the following doses: Vehicle (0.0 mg/kg), ABP (0.5mg/kg), PGE2 /ABP (1.2 mg/kg), PGE2 (0.7 mg/kg). Ten days post-neurectomy femora were removed at necropsy, dissected from the musculature, and placed in crucibles for incineration at 700° C. for twenty-four hours. Following incineration, the femoral ash content was weighed to the nearest 0.1 mg and the femoral ash weight differences between the control and immobilized hindlimb were calculated. Data represent mean ±SEM (n=6).

[2] = 1, 3 and 6 mg of PGE2/Kg/day, cited from earlier work
[3] = cited from earlier work
bone formation = conditions: systemic injection; cited from earlier work
[4] = cited from earlier work; remark: listed apart in the source
[5] = long term s.c. administration; cited from earlier work
[6] = cited from earlier work; remark: listed apart in the source
[7] = administered systemically; cited from earlier work

| SMILES | urinary lysylpyridinoline (LP) level versus vehicle (bone resorption; 12 days) | urinary lysylpyridinoline (LP) level versus vehicle (bone resorption; 26 days) | prevention of bone loss accompanying limb immobilization [1] | hard tissue mass ([2]; secondary spongiosa of proximal tibial metaphysis) | number of trabeculae [2] | periosteal and corticoendosteal bone mass ([3]; daily administration) | bone activity ([3]; s.c., 60, 120, and 180 days) | tibial diaphyseal bone mass ([3]; s.c., 60, 120, and 180 days) | bone formation in vivo (bone formation) | serum phosphate levels ([4]; 1 mg of PGE2, rats) | side effects ([4]; s.c., rats, doses of 3 mg/Kg/day or higher) | soft tissue weight [5] | side effects after oral dosing [6] | serum alkaline phosphatase levels ([6]; oral) | half-life [7] |
| --- | --- | --- | --- | --- | --- | --- | --- | --- | --- | --- | --- | --- | --- | --- | --- |
| NCCCC(O)(P(=O)([O-])[O-])P(=O)(O)O.[Na+].[Na+] [ABP, 4-amino-1-hydroxybutylidene bisphosphonic acid disodium salt] | lower levels of LPs | lower levels of LPs | effective | – | – | – | – | – | – | – | – | – | – | – | – |
| CCCCC[C@H](O)/C=C/[C@H]1[C@H](O)CC(=O)[C@@H]1C/C=C\CCCC(=O)O [PGE2] | – | – | no statistical difference | increase in hard tissue mass | increase in the number of trabeculae | increases periosteal and corticoendosteal bone mass and sustains the transient increase in bone mass | elevated bone activity | increased tibial diaphyseal bone mass | stimulated | significant decreases | diarrhea and flushing of the extremities along with weight loss | soft tissue weight increases in adrenal glands, liver, kidneys, and lungs | loose stools, diarrhea, vomiting, infected sclerae | increased serum alkaline phosphatase levels | short half-life |
